# Laboratory results reported in EPA's ToxValDB 9.5.
# Values joined by “and” are separate entries in the source; they are usually repeats but may differ in a detail not shown here. Equal entries are not always repeated.
# How the values were obtained:
# Canidae [1] = details: oral, Dog Other
# Canidae [2] = details: subchronic; oral; M/F; Dog Other; internal hemorrhage, mortality
# Oryctolagus sp. [3] = details: subchronic, inhalation
# Rattus norvegicus [4] = details: subchronic, oral, drinking water, Fischer 344
# Cavia porcellus = details: acute, Guinea Pig; for LD50: oral
# Mus musculus [5] = tested on: Mus musculus
# Oryctolagus sp. [6] = details: acute
# Rattus norvegicus [7] = tested on: Rattus norvegicus
# Rattus norvegicus [8] = details: Hershberger; duration: 10 days; oral; gavage; Sprague-Dawley; inactive + Negative + Negative + neither + see comment
# Rattus norvegicus [9] = details: subchronic; duration: 90 days; oral; gavage; Kidney: Increased weight + Kidney: Nephrotoxicity + Liver: Increased weight
# Rattus norvegicus [10] = tested on: Rattus norvegicus; remark: listed apart in the source
# Homo sapiens = details: clinical; duration: 4 hours; inhalation; M/F; neurological
# Rattus norvegicus [11] = details: repeat dose other; oral
# Mus musculus [12] = details: oral, drinking water
# Mus musculus [13] = details: chronic; oral; M/F; Brain cell vacuolization + liver cell alterations in females
# Rattus norvegicus [14] = details: subchronic; duration: 2 months; inhalation; unknown; Wistar; respiratory
# [15] = M/F, New Zealand, reduced testes weight, seminiferous tubule degeneration and reduced hemoglobin
# [16] = short-term, duration: 11 days, oral, diet, B6C3F1
# [17] = subchronic, duration: 3 months, oral, gavage, B6C3F1
# [18] = short-term, duration: 9 days, oral, gavage, Fischer 344
# [19] = subchronic, duration: 3 months, oral, diet, Wistar
# [20] = subchronic, duration: 3 months, oral, gavage, Fischer 344
# [21] = subchronic, oral, drinking water, M/F, nephropathy
# [22] = reproduction developmental, oral, drinking water, M/F, neurodevelopmental effects
structure (smiles),measurement,setting,value
CNC(=O)ON=C(CSC)C(C)(C)C,NOAEL,"Canidae [1]; short-term, duration: 8 days, Cholinesterase: Decreased cholinesterase activity",0.025 mg/kg-day
"O=C(O)CCCOc1ccc(Cl)cc1Cl [2,4-Dichlorophenoxybutyric acid]",NOAEL,"Canidae [1]; subchronic, duration: 90 days, diet, Cardiovascular system: Hemorrhage + Whole body: Increased mortality",8 mg/kg-day
same,LOAEL,Canidae [2],25 mg/kg-day
same,NOAEL,Canidae [2],8 mg/kg-day
CCOCCO [2-Ethoxyethanol],LOAEL,Oryctolagus sp. [3]; [15],1480 mg/m3
same,NOAEL,Oryctolagus sp. [3]; [15],380 mg/m3
same,NOEL,"Rattus norvegicus [4]; F, Deaths + Clinical Observation: Emaciation Diarrhea Abnormal posture Tremors + Body Weight Changes: decrease + Water Consumption: decrease + …",122 mg/kg-day
same,NOEL,"Rattus norvegicus [4]; M/F, Deaths + Clinical Observation: Emaciation Diarrhea Abnormal posture Tremors + Body Weight Changes: decrease + Water Consumption: decrease + …",< 190 mg/kg-day
CCCCC(CC)CO (stereo not given) [2-Ethyl-1-hexanol],LD50,Cavia porcellus,≥ 1220 mg/kg and ≤ 2820 mg/kg
same,LD50,Cavia porcellus; gavage,600 mg/kg
same,NOAEL,"Mus musculus [5]; developmental, duration: 18 days, oral, diet, CD1",> 191 mg/kg-day
same,NOAEL (% diet),"Mus musculus [5]; repeat dose other, oral, diet, B6C3F1",≥ 0.44 and ≤ 0.66
same,NOAEL,"Mus musculus [5]; reproduction developmental, duration: 18 days, oral, diet, F, CD1",> 191 mg/kg-day
same,NOAEL,"Mus musculus [5]; reproduction developmental, oral, diet, F, CD1",> 191 mg/kg-day
same,LOAEL,Mus musculus [5]; [16],≥ 1000 mg/kg-day and ≤ 1500 mg/kg-day
same,LOAEL (% diet),Mus musculus [5]; [16],≥ 0.66 and ≤ 1.32
same,NOAEL (% diet),Mus musculus [5]; [16],≥ 0.44 and ≤ 0.66
same,NOAEL,"Mus musculus [5]; short-term, duration: 11 days, oral, diet, F, B6C3F1",2650 mg/kg-day and 1000 mg/kg-day
same,NOAEL,"Mus musculus [5]; short-term, duration: 11 days, oral, gavage, B6C3F1",100 mg/kg-day
same,LOAEL,Mus musculus [5]; [17],≥ 250 mg/kg-day and ≤ 500 mg/kg-day
same,NOAEL,Mus musculus [5]; [17],≥ 125 mg/kg-day and ≤ 250 mg/kg-day
same,NOAEL,"Mus musculus [5]; subchronic, duration: 3 months, oral, gavage, F, B6C3F1",250 mg/kg-day
same,NOAEL,"Mus musculus [5]; subchronic, duration: 3 months, oral, gavage, M, B6C3F1",125 mg/kg-day
same,LD50,Oryctolagus sp. [6]; dermal,> 2600 mg/kg and 1980 mg/kg
same,LD50,Oryctolagus sp. [6]; oral,1180 mg/kg and 1470 mg/kg
same,LD50,"Rattus norvegicus [7]; acute, dermal",> 3000 mg/kg
same,LD50,"Rattus norvegicus [7]; acute, oral, gavage, albino",7000 mg/kg
same,NOAEL,"Rattus norvegicus [7]; developmental, dermal, occlusive, Fischer 344",> 2520 mg/kg-day
same,NOAEL,"Rattus norvegicus [7]; developmental, duration: 10 days, dermal, occlusive, Fischer 344",> 2520 mg/kg-day
same,NOAEL,"Rattus norvegicus [7]; developmental, oral, gavage, Wistar",650 mg/kg-day
same,NOAEL,"Rattus norvegicus [7]; repeat dose other, inhalation, Wistar",0.648 mg/L and 0.32 mg/L
same,NOAEL (% diet),"Rattus norvegicus [7]; repeat dose other, oral, diet, Fischer 344",0.46
same,LOAEL,"Rattus norvegicus [7]; repeat dose other, oral, gavage, Fischer 344",100 mg/kg-day
same,NOAEL,"Rattus norvegicus [7]; reproduction developmental, duration: 10 days, oral, gavage, F, Wistar",130 mg/kg-day
same,NOAEL,"Rattus norvegicus [7]; reproduction developmental, oral, gavage, F, Wistar",130 mg/kg-day
same,NOAEL,"Rattus norvegicus [7]; short-term, duration: 9 days, oral, drinking water, Fischer 344",636 ppm
same,LOAEL,Rattus norvegicus [7]; [18],100 mg/kg-day
same,NOAEL,Rattus norvegicus [7]; [18],83 mg/kg-day
same,NOAEL,"Rattus norvegicus [7]; short-term, duration: 14 days, inhalation, Wistar",0.32 mg/L
same,LOAEL,"Rattus norvegicus [7]; short-term, duration: 21 days, oral, gavage, Fischer 344",100 mg/kg-day
same,LOAEL (% diet),Rattus norvegicus [7]; [19],0.25
same,NOAEL (% diet),Rattus norvegicus [7]; [19],0.05
same,LOAEL,Rattus norvegicus [7]; [20],250 mg/kg-day
same,NOAEL,Rattus norvegicus [7]; [20],125 mg/kg-day and ≤ 250 mg/kg-day
same,NOAEL,"Rattus norvegicus [7]; subchronic, duration: 13 weeks, oral, gavage",250 mg/kg-day
"N#CCCSCCC#N [3,3'-Thiodipropionitrile]",LC50,Cavia porcellus; inhalation,> 88.9 mg/m3
same,LC50,"Mus musculus [5]; acute, inhalation",> 88.9 mg/m3
same,LD50,"Mus musculus [5]; acute, oral, gavage, albino",3750 mg/kg
same,LC50,"Rattus norvegicus [7]; acute, inhalation",> 88.9 mg/m3
CC(C)=O [Acetone],NOEL,Rattus norvegicus [8],1000 mg/kg-day
same,NOEL,Rattus norvegicus [9],100 mg/kg-day
same,LOAEL,Rattus norvegicus [10]; [21],1700 mg/kg-day
same,NOAEL,Rattus norvegicus [10]; [21],900 mg/kg-day
same,NOEL,"Rattus norvegicus [4]; M/F, Body Weight Changes: decrease + Water Consumption: decrease + Hematology: WBC increase, Lymph increase, Hgb decrease, RBC decrease, MCH …",380 mg/kg-day
same,LOAEL,Homo sapiens,563 mg/m3
same,LOAEL,Rattus norvegicus [11],50 mg/kg-day
same,NOAEL,Rattus norvegicus [11],10 mg/kg-day
Nc1ccc(-c2ccc(N)cc2)cc1 [C.I. Azoic Diazo Component 112],LOAEL,"Mus musculus [12]; chronic, duration: 33 months, Brain: Cellular changes + Liver: Cellular changes",2.7 mg/kg-day
same,LOAEL,Mus musculus [13],2.7 mg/kg-day
O=CC(Cl)(Cl)Cl [Chloral],LOAEL,"Mus musculus [12]; subchronic, duration: 90 days, Liver: Effects",15.7 mg/kg-day
[O][Cl+][O-] [Chlorine dioxide],LOAEL,"Oryctolagus sp. [3]; duration: 45 days, Hemorrhagic alveoli and congested capillaries the lungs",6.9 mg/m3
same,LOAEL,Rattus norvegicus [10]; [22],6 mg/kg-day
same,NOAEL,Rattus norvegicus [10]; [22],3 mg/kg-day
same,LOAEL,"Rattus norvegicus [10]; subchronic, duration: 60 days, inhalation, vascular congestion and peribronchial edema",2.76 mg/m3
same,LOAEL,Rattus norvegicus [14],2.76 mg/m3
